# Laboratory results published in patent US6451353B1 (priority 1997, dated 2002).
# Assays:
# Tumor = assay: Tumor-inhibiting rates of extracts obtained with different solvents; assay type: in vivo, mice; settings: 5-FU 10 mg/kg
# Sarcoma 180 [1] = assay: Inhibiting effect on mouse sarcoma 180; assay type: in vivo; settings: ICR mice; 5-Fu 5 mg/kg/d i.p. × 12
# Method: Healthy Kunming and ICR mice with a body weight of 18-22 g. each were obtained from the breeding center of Sichuan Institute of Antibiotic Industry, Chengdu, Sichuan Province, P. R. China. Both male and female mice were used in the experiment. Sarcoma 180 was obtained from the Division of Pharmacology, Sichuan Institute of Antibiotic Industry, Chengdu, Sichuan Province, P. R. China. […] The experiment was carried out in vivo according to “Procedures of in vivo Screening of Antineoplastic Drugs” established in P. R. China in 1978.
# Lewis lung carcinoma = assay: Inhibiting effect on Lewis lung carcinoma; assay type: in vivo, mice; settings: Table 9; 5-Fu 5 mg/kg/d i.p. × 10
# Method: Healthy C57BL/6N mice with a body weight of 18-22 g. each were obtained from the breeding center of Sichuan Institute of Antibiotic Industry, Chengdu, Sichuan Province, P. R. China. Both male and female mice were used in the experiment. Lewis lung carcinoma was obtained from the Division of Pharmacology, Sichuan Institute of Antibiotic Industry, Chengdu, Sichuan Province, P. R. China. […] The experiment was carried out in vivo according to “Procedures of in vivo Screening of Antineoplastic Drugs” established in P. R. China in 1978.
# cervical carcinoma U14 = assay: Inhibiting effect on mouse cervical carcinoma U14; assay type: in vivo; settings: Table 13, ICR mice; 5-Fu 5 mg/kg/d i.p. × 9
# Method: Healthy Kunming and ICR mice with a body weight of 18-22 g. each were obtained from the breeding center of Sichuan Institute of Antibiotic Industry, Chengdu, Sichuan Province, P. R. China. Both male and female mice were used in the experiment. Uterine carcinoma U14 was obtained from the Division of Pharmacology, Sichuan Institute of Antibiotic Industry, Chengdu, Sichuan Province, P. R. China. […] The experiment was carried out in vivo according to “Procedures of in vivo Screening of Antineoplastic Drugs” established in P. R. China in 1978.
# Sarcoma 180 [2] = assay: Combination with 5-fluorouracil and 60Co gamma rays on mouse sarcoma 180; assay type: in vivo; settings: Kunming mice, Fagopyrum Composition 100 mg/kg p.o. × 10, 5-FU 5 mg/kg i.p. × 10, γ 300 rad × 1
# Method: 60 Kunming mice were obtained from the breeding center of Chengdu Institute of Biological Products, the Ministry of Health, Chengdu, Sichuan Province, P. R. China.
# Sarcoma 180 was obtained from the Division of Pharmacology, Sichuan Institute of Antibiotic Industry, Chengdu, Sichuan Province, P. R. China. The tumor line had been passed on several times in Kunming mice.
# The drug was prepared by Nantong Pharmaceuticals, Nantong, Jiangsu Province, P. R. China.
# Inoculation of tumor line and evaluation of therapeutic efficacy were performed according to “Procedures of in vivo Screening of Antineoplastic Drugs” established in P. R. China in 1978.
# Sixty mice were divided into 6 groups, 10 mice for each group. Group 1 was the control group wherein the mice were treated only by saline. Groups 2 to 6 were treatment groups using different therapies. […] Group 3 was treated with 5-Fluorouracil. Group 4 was treated with ^60Co irradiation. […] Result of each group was then calculated and compared.
smiles,measurement,setting,value
"O=c1[nH]cc(F)c(=O)[nH]1 [5-FU, 5-Fluorouracil]",Tumor-inhibiting Rate,Tumor,31.37%
same,Average Tumor Weight (x ± SD),Sarcoma 180 [1],0.49 ± 0.25 g
same,Change in Mean Value of Body Weight,Sarcoma 180 [1],+2.01 g
same,Tumor Inhibiting Rate,Sarcoma 180 [1],51.49%
same,Average Tumor Weight (x ± SD),Lewis lung carcinoma,0.74 ± 0.49 g
same,Change in Mean Value of Body Weight,Lewis lung carcinoma,+0.4 g
same,Tumor Inhibiting Rate,Lewis lung carcinoma,52.26%
same,Average Tumor Weight (x ± SD),cervical carcinoma U14,1.27 ± 0.37 g
same,Change in Mean Value of Body Weight,cervical carcinoma U14,+3.93 g
same,Tumor Inhibiting Rate,cervical carcinoma U14,35.53%
same,Tumor Inhibiting Rate,Sarcoma 180 [2],47.8%
same,Tumor Weight,Sarcoma 180 [2]; saline control 1.36,0.71 g
